For experiment [1], the system named is retinal gangliocyte in a retinal ischemia—reperfusion model. Briefly: Effects on the retina subjected to the ischemia—reperfusion treatment. In kind it is in vivo, rat. From the text:
1. Effects on the Retina Subjected to the Ischemia—Reperfusion Treatment
It has been reported that brain-derived neurotrophic factor (it is referred to as BDNF hereinafter) which is a neurotrophic factor has a protective effect against gangliocytic death caused by retinal ischemia (Invest. Ophthalmol. Vis. Sci. 35, 907-915 (1994)).
Thus, according to the method described in this reference, the effects of the compounds on retinal gangliocyte in a retinal ischemia—reperfusion model were studied.
Under anesthesia with a mixture of Ketalar and Celactal, the conjunctiva of a male Spraugue—Dawley rat (300-450 g) was dissected to expose the optic nerve and then the retina was subjected to an ischemic state by ligating the optic nerve with a suture. Sixty minutes after the ischemia, the suture was taken out to reperfuse the retina with the blood by allowing the circulation. Seven days after the reperfusion, the eye bulb was enucleated and then immobilized with paraformaldehyde, and after embedding it in paraffin, the transverse paraffin sections of the eye bulb with 3 μm of the thickness were prepared by slicing the eye bulb beginning from the point of exposure of the optic nerve with 60 μm of each interval. These sections were stained with hematoxylin—eosin and photographs were taken for the section in which the retinal part at the distance of approximately 1 mm from the optic disc to either direction, left or right, is included to measure the number of the cells contained in the layer of gangliocyte.
Here, the compound was dissolved into polyethylene glycol 660 hydroxystearate and injected in the volume of 1 μl into the hyaloid body two day before the creation of the ischemic state.

Experiment [2] deals with retinal disturbance induced by injecting kainic acid into the hyaloid body. Briefly: Effects on the retina from the eye treated with kainic acid. Conditions: for Thickness of the inner plexiform layer: injected two days before, at the same time as and one day after kainic acid, Normal 47.5, Control 20.8; for Thickness of the inner plexiform layer / Number of the cells in the layer of gangliocyte: 7 days after; for Number of the cells in the layer of gangliocyte: Normal 64.2, Control 36.8. Type of experiment: in vivo, rat. How it is done: 2. Effects on the Retina From the Eye Treated with Kainic Acid
It has been reported that when kainic acid, that is a neurotoxin, is injected into the hyaloid body, the inner plexiform layer becomes thinner because of synaptic collapse caused by cell death of amacrine cell or the number of the cells contained in the layer of gangliocyte decreases because of apoptosis happening to those cells (Neurochem. Int., 31, 251-260 (1997)).
Then, according to the method described in this reference, the effects of the compound on the retinal disturbance induced by injecting kainic acid into the hyaloid body were studied.
To a male Sprague—Dawley rat (180-250 g) under anesthesia with pentobarbital, a solution of kainic acid in polyethylene glycol 660 hydroxystearate (1 mmol/L) was injected into the hyaloid bodies in both of the eyes in the amount of 5 μl under observation with a stereoscopic microscopy. […]. These sections were stained with hematoxylin—eosin and photographs were taken for the sections in which the retinal part at the distance of approximately 1 mm from the optic disc to either direction, left or right, is included to measure the thickness of the inner plexiform layer and the number of the cells contained in the layer of gangliocyte.
The compound was dissolved into polyethylene glycol 660 hydroxystearate and then injected into the hyaloid bodies two days before, at the same time as and one day after the kainic acid treatment in the volume of 5 μl each.

The text below walks through data of patent US6451787B1, “Remedies for ocular diseases” (Cephalon, Inc., priority 1998, dated 2002).

As for `CCSCc1ccc2c(c1)c1c3c(c4c5cc(CSCC)ccc5n5c4c1n2[C@H]1C[C@](O)(C(=O)OC)[C@]5(C)O1)CNC3=O` [Compound A], in experiment [1] (3 μg injected, ischemia—reperfusion treatment), the “Number of the cells in the layer of gangliocyte recovered to the level of that for Normal Group (1)” value was 70.9%. The “Number of the cells in the layer of gangliocyte” value is listed as 27.5 cells/mm in experiment [1] (3 μg/eye injected into the hyaloid body two days before 60 min ischemia, 7 days after reperfusion, Normal Group 38.8, Control Group 20.5); 51.8 cells/mm in experiment [2] (3 μg/eye, kainic acid treatment); 42.3 cells/mm in experiment [2] (30 μg/eye [sic], kainic acid treatment). In experiment [1] (conclusion in words), the “Protective effect on neurocyte disturbance of the retina caused by the ischemia—reperfusion treatment” value is listed as “superior protective effect”. In experiment [2] (3 μg injected, kainic acid treatment), the “Number of the cells in the layer of gangliocyte recovered to the level of that for Normal group (2)” value is reported as 80.7%. Further, the figures for the “Thickness of the inner plexiform layer” value in experiment [2] (3 μg/eye) and in experiment [2] (30 μg/eye [sic]) were 28.8 μm and 23.8 μm, respectively. In addition, the “Protective effect against neurocyte disturbance of the retina caused by the kainic acid treatment” value in experiment [2] (conclusion in words) is reported as “superior protective effect”.
